Data as given in the supplement of paper PMC9244889.
Structures can show the parent of a compound that is named as a salt.

How the values were obtained:
[1] = tested on: Vero E6; test: cytotoxicity relative to untreated cell control; higher = more toxic; conditions: 72 h, assay detail: uninfected
Protocol: (§1)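 Vero E6 C1008 cells (2e4 cells/well) were treated with a 3-fold dilution series of each drug (monotherapy), with or without live SARS-CoV-2 (propagated original strain, 100 TCID50). After 72 h at 37 °C, viability was read with Viral ToxGlo (ATP luminescence). %Inhibition of virus-induced CPE and %Cytotoxicity (uninfected) were normalised to cell and virus controls. Triplicates. The paper excluded %Inhibition points with >25% cytotoxicity from its curve fits.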

[2] = tested on: Vero E6; test: inhibition of SARS-CoV-2-induced cytopathic effect relative to cell and virus controls; higher = more antiviral protection; conditions: 72 h, virus: SARS-CoV-2 propagated original strain, 100 TCID50, assay detail: infected
Protocol: as §1

Cc1ccc(NC(=O)c2ccc(CN3CCN(C)CC3)cc2)cc1Nc1nc(-c2cccnc2)cs1 [masitinib]
Conditions	cytotoxicity, [1] [%]	inhibition of SARS-CoV-2-induced cytopathic effect, [2] [%]
0.000564503 µM	-15.3	0.87
0.00169351 µM	-17.5	1.03
0.00508053 µM	-21.6	2.14
0.0152416 µM	-16.3	1.2
0.0457247 µM	-19.4	0.66
0.137174 µM	-17.8	0.458
0.411523 µM	-19.8	3.69
1.23457 µM	-15.2	8.75
3.7037 µM	4.4	42.8
11.1111 µM	83.4	18.1
33.3333 µM	99.617	-7.42
100 µM	99.831	-17.86

N=C(N)Nc1ccc(C(=O)Oc2ccc3cc(C(=N)N)ccc3c2)cc1 [nafamostat mesylate]
Conditions	cytotoxicity, [1] [%]	inhibition of SARS-CoV-2-induced cytopathic effect, [2] [%]
56.45 pM	-10.2	1.36
0.000169351 µM	-7.59	0.555
0.000508053 µM	-1.77	1.31
0.00152416 µM	-4.85	0.363
0.00457247 µM	-6	0.453
0.0137174 µM	-9.55	0.391
0.0411523 µM	-7.66	-0.525
0.123457 µM	-5.32	-0.383
0.37037 µM	1.08	0.358
1.11111 µM	-2.6	0.841
3.33333 µM	1.59	0.526
10 µM	-0.485	-0.288

CCC(CC)COC(=O)[C@H](C)N[P@](=O)(OC[C@H]1O[C@@](C#N)(c2ccc3c(N)ncnn23)[C@H](O)[C@@H]1O)Oc1ccccc1 [remdesivir]
Conditions	cytotoxicity, [1] [%]	inhibition of SARS-CoV-2-induced cytopathic effect, [2] [%]
0.000564503 µM	-22.9	1.31
0.00169351 µM	-17.3	1.17
0.00508053 µM	-11.8	-0.59
0.0152416 µM	-6.94	-0.693
0.0457247 µM	-6.5	-0.335
0.137174 µM	-4.51	1.45
0.411523 µM	-1.99	6.62
1.23457 µM	-7.93	42.2
3.7037 µM	-2.61	111
11.1111 µM	2.25	108
33.3333 µM	9.25	96.6
100 µM	59.6	44.1

CC(C)c1nc(CN(C)C(=O)N[C@H](C(=O)N[C@@H](Cc2ccccc2)C[C@H](O)[C@H](Cc2ccccc2)NC(=O)OCc2cncs2)C(C)C)cs1 [ritonavir]
Conditions	cytotoxicity, [1] [%]	inhibition of SARS-CoV-2-induced cytopathic effect, [2] [%]
0.00112901 µM	-15.2	2.5
0.00338702 µM	-13.3	3.51
0.0101611 µM	-27.3	1.73
0.0304832 µM	-22.5	0.79
0.0914495 µM	-33.3	2.39
0.274348 µM	-28.6	0.802
0.823045 µM	-22	1.81
2.46914 µM	-21.4	1.96
7.40741 µM	-27.3	2.22
22.2222 µM	-38.7	7.59
66.6667 µM	8.14	2.75
200 µM	69.7	-2.18

O=C(/C=C\n1cnc(-c2cc(C(F)(F)F)cc(C(F)(F)F)c2)n1)NNc1cnccn1 [selinexor]
Conditions	cytotoxicity, [1] [%]	inhibition of SARS-CoV-2-induced cytopathic effect, [2] [%]
0.000564503 µM	14.6	1.79
0.00169351 µM	14.9	0.365
0.00508053 µM	7.61	-1.85
0.0152416 µM	7.88	-2.96
0.0457247 µM	29.1	-4.3
0.137174 µM	23.4	-3.81
0.411523 µM	35.6	-3.25
1.23457 µM	47.2	-2.87
3.7037 µM	48.93	-1.23
11.1111 µM	44.1	8.51
33.3333 µM	89.1	-1.32
100 µM	99.74	-15.08

CCC[C@H](NC(=O)[C@@H]1[C@H]2CCC[C@H]2CN1C(=O)[C@@H](NC(=O)[C@@H](NC(=O)c1cnccn1)C1CCCCC1)C(C)(C)C)C(=O)C(=O)NC1CC1 [telaprevir]
Conditions	cytotoxicity, [1] [%]	inhibition of SARS-CoV-2-induced cytopathic effect, [2] [%]
0.000564503 µM	0.259	0.117
0.00169351 µM	-0.00145	1.28
0.00508053 µM	-4.54	-0.629
0.0152416 µM	-3.42	-0.222
0.0457247 µM	-3.36	0.129
0.137174 µM	-8.35	-0.93
0.411523 µM	-3.53	-0.643
1.23457 µM	-4.1	1.01
3.7037 µM	-6.16	0.773
11.1111 µM	-1.51	0.394
33.3333 µM	17.2	-2.07
100 µM	80.5	17.4
